In US20090010998A1 (priority 2007, published 2009):

Legend:
[1] = tested on: BALB/c or A/J mice; settings: mouse, in vivo
[2] = tested on: backs of BALB/c mice; assay: in vivo release test, FD&C dye impregnated dissolvable film on abraded skin; settings: one hour after application; visually noted, estimated
Protocol: In one test, the backs of BALB/c mice were treated in multiple sites with an abrasive device (FAST™ device, see, for example, United States Publication No. 20040236269, incorporated herein by reference) where a 60 μm abrasive, was applied to the skin with 10-20 grams of force, oscillating at 840 Hz for 2 seconds over a 5×8 mm spot. FD&C dye impregnated dissolvable films were placed over each treatment site with a semi-occlusive covering (patch). The patch was left on for a period of 1-24 hours.

Molecule | effect of adjuvant/preservative on antibody titer [1] | effect of adjuvant/preservative on efficiency of TCI [1] | presence of dye on the mouse skin [2] [%]
C=O [formalin] | higher titer antibody response | did not show a statistically significant difference | 
FD&C No. 1 dye |  |  | > 75
alum | higher titer antibody response |  | 
